Measured values reported in patent US9862742B2, “Tricyclic nucleosides and oligomeric compounds prepared therefrom” (UNIVERSITAT BERN, priority 2013, dated 2018).
Oligonucleotides are written 5' to 3', each unit as a sugar letter and its base; * is a phosphorothioate linkage, no mark a phosphodiester; rarer units and linkages stand in square brackets, end groups in braces. Plain capitals give the bases only. [6'F-TC-N] = 6'-fluorinated tricyclic nucleoside, subtype b of the publication (N: the base); [F-tcDNA] = 6'-fluoro tricyclic (tricyclo-DNA) nucleoside; [tcDNA-N] = tricyclo-DNA nucleoside (N: the base); [tcDNA] = tricyclo-DNA nucleoside; d = 2'-deoxy (DNA); {P} = phosphate

Assays:
complementary DNA = assay: Tm study of oligomeric compounds duplexed with complementary DNA (UV melting); assay type: binding; details: 1.2 μM, 150 mM NaCl, 10 mM phosphate, 0.1 mM EDTA, pH 7; for ΔTm/mod (° C.) vs DNA: referenced to unmodified DNA or to the fully modified tricyclo-DNA oligomer
Description: (§1) The relative ability of a chemically-modified oligomeric compound to bind to complementary nucleic acid strands, as compared to natural oligonucleotides, is measured by obtaining the melting temperature of a hybridization complex of said chemically-modified oligomeric compound with its complementary unmodified target nucleic acid. The melting temperature (Tm), a characteristic physical property of double helixes, denotes the temperature in degrees centigrade at which 50% helical versus coiled (unhybridized) forms are present. Tm (also commonly referred to as binding affinity) is measured by using the UV spectrum to determine the formation and breakdown (melting) of hybridization. Base stacking, which occurs during hybridization, is accompanied by a reduction in UV absorption (hypochromicity). Consequently a reduction in UV absorption indicates a higher Tm. Following standard automated DNA synthesis protocols oligomeric compounds were prepared comprising one or more tricyclic nucleosides for Tm studies. After cleavage from the solid support, the oligomeric compounds were purified by ion exchange HPLC and analyzed by LCMS using standard procedures. The Tm of the modified 10 mer oligomeric compounds were compared to an unmodified 10 mer DNA oligonucleotide when duplexed to either DNA or RNA. Tm's were determined using a Cary 100 Bio spectrophotometer with the Cary Win UV thermal program was used to measure absorbance vs. temperature. For the Tm experiments, the oligomeric compounds were prepared at a concentration of 1.2 μM in a buffer of 150 mM NaCl, 10 mM phosphate, 0.1 mM EDTA at pH 7. The concentration determined at 85° C. was 1.2 μM after mixing of equal volumes of selected oligomeric compound and complementary RNA or DNA. The oligomeric compounds were hybridized with a complementary RNA or DNA by heating the duplex to 90° C. for 5 minutes and then cooling to room temperature. Tm measurements were taken using a spectrophotometer while the duplex solution was heated in a cuvette at a rate of 0.5° C./min starting at 15° C. until the temperature was 85° C. Tm values were determined using Vant Hoff calculations (A260 vs temperature curve) using non self-complementary sequences where the minimum absorbance related to the duplex and the maximum absorbance related to the non-duplex single strand are manually integrated into the program.

complementary RNA = assay: Tm study of oligomeric compounds duplexed with complementary RNA (UV melting); assay type: binding; details: 1.2 μM, 150 mM NaCl, 10 mM phosphate, 0.1 mM EDTA, pH 7; for ΔTm/mod (° C.) vs RNA: referenced to unmodified DNA or to the fully modified tricyclo-DNA oligomer
Description: as §1

[1] = test system: exon 23 of the mouse dystrophin gene; assay: Exon 23 skipping in primary mdx cells, gymnotic delivery, RT-PCR/nested PCR and gel electrophoresis; assay type: cell-based; details: for exon skipping (exon 23, gel of nested PCR products): 50 μg (approx 9 nmol) oligonucleotide, no transfection agent (gymnosis), harvested 4 days after transfection
Source text: The mdx mouse represents a model for the human genetic disease Duchenne muscular dystrophy. It contains a mutation in exon 23 of the mouse dystrophin gene which gives rise to a premature stop codon. As a consequence no functional dystrophin mRNA and dystrophin protein is produced. It is known in the field (Lu et al., Proc Natl Acad Sci USA 2005, 102, 198-203) that administration of an antisense oligonucleotide designed to bind to the exon/intron junction of exon 23 leads to skipping of exon 23 during mRNA splicing and thus to a functional variant of the mouse dystrophin protein.
To test the exon skipping potential of A20-A23, mdx primary cells (mdx mouse) were transfected without transfection agents (gymnosis) with 50 μg (approx 9 nmol) of each oligonucleotide A20 to A23. Cells were harvested 4 days after transfection and the RNA was extracted. RT-PCR and nested PCR around exon 23 (EX20F/Ex26R) was performed and the products analyzed by gel electrophoresis (FIG. 1).
The slower moving band correspond to nonskipped RNA (including […]) while the faster moving band corresponds to skipped ([…] excluded) RNA.

16 (GCATTTTTACCG; unmodified DNA) [compound 16]
ΔTm/mod (° C.) vs DNA (complementary DNA): 0 °C | ΔTm/mod (° C.) vs RNA (complementary RNA): 0 °C

12 (AACT_{c}GT_{c}CACG; as printed in the source, key not given here) [compound 12]
ΔTm/mod (° C.) vs DNA (complementary DNA): +1.8 °C | ΔTm/mod (° C.) vs RNA (complementary RNA): +2.8 °C

SEQ ID NO. 16: unmodified oligonucleotide GCATTTTTACCG (unmodified DNA) [reference compound]
Tm duplexed with DNA (complementary DNA): 45.6 °C | Tm duplexed with RNA (complementary RNA): 42.2 °C

14 (AACT_{d}GTCACG; as printed in the source, key not given here) [compound 14]
ΔTm/mod (° C.) vs DNA (complementary DNA): −2.7 °C | ΔTm/mod (° C.) vs RNA (complementary RNA): −2.5 °C

05 (dAdAdC[6'F-TC-T]dG[6'F-TC-T]dCdAdCdG) [compound 05]
ΔTm/mod (° C.) vs DNA (complementary DNA): 0 °C | ΔTm/mod (° C.) vs RNA (complementary RNA): 0 °C

SEQ ID NO. 17: GCATdTdTdTdTdACCG, 5 consecutive arabinofluoro residues (GCATTTTTACCG; listed as DNA, chemistry not fully specified)
ΔTm/mod (° C.) vs RNA (complementary RNA): +0.6 °C

09 (pA_{a}A_{a}C_{a}T_{b}G_{a}T_{b}C_{a}A_{a}C_{a}G_{a}; as printed in the source, key not given here) [compound 09]
ΔTm/mod (° C.) vs DNA (complementary DNA): −1.8 °C | ΔTm/mod (° C.) vs RNA (complementary RNA): −0.2 °C

02 (AACTGTCACG; sugars from the 5' end d5 [tcDNA]1 d4, all phosphodiester, methylation of C not given here) [compound 02]
ΔTm/mod (° C.) vs DNA (complementary DNA): +2.1 °C | ΔTm/mod (° C.) vs RNA (complementary RNA): +0.9 °C

SEQ ID NO. 07: pAaAaCaTaGaTbCaAaCaGa, tricyclo-DNA backbone with one 6′-fluoro residue, 5′-phosphorylated (AACTGTCACG; sugars from the 5' end [tcDNA]5 [F-tcDNA]1 [tcDNA]4, all phosphodiester, 5' {P}, methylation of C not given here)
ΔTm/mod (° C.) vs RNA (complementary RNA): up to +0.7 °C

SEQ ID NO. 21: pAaAaCbCbTbCbGaGaCbTbTbAaCbCbTb, fluoro-oligonucleotide 15-mer, PS linkages, 5′-phosphate, C is 5-methylcytosine (AACCTCGGCTTACCT; fluoro tricyclo-DNA, PS, 5′-phosphate, 5-methylcytosine; Sequence for biophysical analysis; (1)..(1) tricyclic nucleoside according to fomula I with T1 being phosphate, T2 being phosphorothioate, Bx being adenine and the other substituents being hydrogen; (2)..(2) tricyclic nucleoside according to fomula I with T1 and T2 being phosphorothioate, Bx being adenine and the other substituents being hydrogen; (3)..(3) tricyclic nucleoside according to fomula)
exon skipping (exon 23, gel of nested PCR products) [1]: substantial exon skipping | exon skipping, qualitative comparison with A21 ([1]; 50 μg, gymnosis, 4 days): slightly superior compared to A21

04 (dAdAdC[6'F-TC-T]dGdTdCdAdCdG) [compound 04]
ΔTm/mod (° C.) vs DNA (complementary DNA): +1.6 °C | ΔTm/mod (° C.) vs RNA (complementary RNA): +0.7 °C

01 (AACTGTCACG; unmodified DNA) [compound 01]
ΔTm/mod (° C.) vs DNA (complementary DNA): 0 °C | ΔTm/mod (° C.) vs RNA (complementary RNA): 0 °C

15 (AACT_{d}GT_{d}CACG; as printed in the source, key not given here) [compound 15]
ΔTm/mod (° C.) vs DNA (complementary DNA): −4.3 °C | ΔTm/mod (° C.) vs RNA (complementary RNA): −3.0 °C

SEQ ID NO. 01: unmodified 10 mer DNA oligonucleotide AACTGTCACG, phosphodiester (unmodified DNA) [reference compound]
Tm duplexed with DNA (complementary DNA): 43.5 °C | Tm duplexed with RNA (complementary RNA): 45.1 °C

17 (GCAT_{d}T_{d}T_{d}T_{d}T_{d}ACCG; as printed in the source, key not given here) [compound 17]
ΔTm/mod (° C.) vs DNA (complementary DNA): -1.1 °C | ΔTm/mod (° C.) vs RNA (complementary RNA): +0.6 °C

10 (AACTGT_{c}CACG; as printed in the source, key not given here) [compound 10]
ΔTm/mod (° C.) vs DNA (complementary DNA): +1.8 °C | ΔTm/mod (° C.) vs RNA (complementary RNA): +0.9 °C

07 (pA_{a}A_{a}C_{a}T_{a}G_{a}T_{b}C_{a}A_{a}C_{a}G_{a}; as printed in the source, key not given here) [compound 07]
ΔTm/mod (° C.) vs DNA (complementary DNA): 0 °C | ΔTm/mod (° C.) vs RNA (complementary RNA): +0.7 °C

SEQ ID NO. 19: pAaAaCaCaTaCaGaGaCaTaTaAaCaCaTa, 15-mer tricyclo-DNA, PS linkages, 5′-phosphate, no fluorine substituents ({P}-[tcDNA-A]*[tcDNA-A]*[tcDNA-C]*[tcDNA-C]*[tcDNA-T]*[tcDNA-C]*[tcDNA-G]*[tcDNA-G]*[tcDNA-C]*[tcDNA-T]*[tcDNA-T]*[tcDNA-A]*[tcDNA-C]*[tcDNA-C]*[tcDNA-T]) [reference compound]
exon skipping (exon 23, gel of nested PCR products) [1]: substantial exon skipping

08 (pA_{a}A_{a}C_{a}T_{b}G_{a}T_{a}C_{a}A_{a}C_{a}G_{a}; as printed in the source, key not given here) [compound 08]
ΔTm/mod (° C.) vs DNA (complementary DNA): −1.6 °C | ΔTm/mod (° C.) vs RNA (complementary RNA): +0.3 °C

13 (AACTGT_{d}CACG; as printed in the source, key not given here) [compound 13]
ΔTm/mod (° C.) vs DNA (complementary DNA): −4.5 °C | ΔTm/mod (° C.) vs RNA (complementary RNA): −4.7 °C

SEQ ID NO. 06: pAaAaCaTaGaTaCaAaCaGa, fully modified tricyclo-DNA, 5′-phosphorylated (AACTGTCACG; all [tcDNA-N], all phosphodiester, 5' {P}, methylation of C not given here) [reference compound]
Tm duplexed with DNA (complementary DNA): 55.0 °C | Tm duplexed with RNA (complementary RNA): 66.2 °C

06 (pA_{a}A_{a}C_{a}T_{a}G_{a}T_{a}C_{a}A_{a}C_{a}G_{a}; fully modified with subtype a nucleosides (not given here), 5'-phosphate, phosphodiester, as printed in the source, key not given here) [compound 06]
ΔTm/mod (° C.) vs DNA (complementary DNA): 0 °C | ΔTm/mod (° C.) vs RNA (complementary RNA): 0 °C

03 (dAdAdCdTdG[6'F-TC-T]dCdAdCdG) [compound 03]
ΔTm/mod (° C.) vs DNA (complementary DNA): +2.0 °C | ΔTm/mod (° C.) vs RNA (complementary RNA): +0.4 °C
